# Measurements reported in ChEMBL document CHEMBL4804281, “STK4 inhibitors for treatment of hematologic malignancies” (2020).
# Tests used:
# Assay type in all cases: cell-based
# [1] = biological target: Tyrosine-protein kinase ABL1 (Homo sapiens) (UniProt P00519); test: Inhibition of ABL in human NCI-H929 cells at 10 uM by mass spectroscopic analysis relative to control
# [2] = biological target: Tyrosine-protein kinase ABL2 (Homo sapiens) (UniProt P42684); test: Inhibition of ARG in human NCI-H929 cells at 10 uM by mass spectroscopic analysis relative to control
# [3] = biological target: RAC-beta serine/threonine-protein kinase (Homo sapiens) (UniProt P31751); test: Inhibition of AKT2 in human NCI-H929 cells at 10 uM by mass spectroscopic analysis relative to control
# [4] = biological target: 5'-AMP-activated protein kinase catalytic subunit alpha-1 (Homo sapiens) (UniProt Q13131); test: Inhibition of AMPKa1 in human NCI-H929 cells at 10 uM by mass spectroscopic analysis relative to control
# [5] = biological target: 5'-AMP-activated protein kinase catalytic subunit alpha-2 (Homo sapiens) (UniProt P54646); test: Inhibition of AMPKa2 in human NCI-H929 cells at 10 uM by mass spectroscopic analysis relative to control
# [6] = biological target: Cyclin-dependent kinase 8 (Homo sapiens) (UniProt P49336); test: Inhibition of CDK8 in human NCI-H929 cells at 10 uM by mass spectroscopic analysis relative to control
# [7] = biological target: DNA-dependent protein kinase catalytic subunit (Homo sapiens) (UniProt P78527); test: Inhibition of DNAPK in human NCI-H929 cells at 10 uM by mass spectroscopic analysis relative to control
# [8] = biological target: T1, Inhibitor of nuclear factor kappa-B kinase subunit epsilon (Homo sapiens) (UniProt Q14164); test: Inhibition of IKKE in human NCI-H929 cells at 10 uM by mass spectroscopic analysis relative to control
# T1 sequence (whole entry): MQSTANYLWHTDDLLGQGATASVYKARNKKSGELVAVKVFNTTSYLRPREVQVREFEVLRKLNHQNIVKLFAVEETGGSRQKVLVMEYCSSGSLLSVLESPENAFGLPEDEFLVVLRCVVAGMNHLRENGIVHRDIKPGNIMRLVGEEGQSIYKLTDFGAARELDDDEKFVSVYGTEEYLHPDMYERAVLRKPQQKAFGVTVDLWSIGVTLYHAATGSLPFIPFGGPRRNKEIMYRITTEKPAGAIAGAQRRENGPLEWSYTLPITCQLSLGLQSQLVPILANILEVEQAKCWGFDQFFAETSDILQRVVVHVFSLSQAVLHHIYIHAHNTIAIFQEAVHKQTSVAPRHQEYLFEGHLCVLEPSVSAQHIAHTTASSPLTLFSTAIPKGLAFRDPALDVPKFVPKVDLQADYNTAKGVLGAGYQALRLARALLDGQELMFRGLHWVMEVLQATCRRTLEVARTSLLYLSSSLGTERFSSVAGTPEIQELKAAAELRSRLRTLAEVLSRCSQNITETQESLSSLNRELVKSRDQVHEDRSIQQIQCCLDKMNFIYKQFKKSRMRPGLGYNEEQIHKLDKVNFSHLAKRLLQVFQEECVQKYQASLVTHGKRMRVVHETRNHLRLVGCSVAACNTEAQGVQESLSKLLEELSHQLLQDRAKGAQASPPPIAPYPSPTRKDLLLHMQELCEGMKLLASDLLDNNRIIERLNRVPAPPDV
# [9] = biological target: Serine/threonine-protein kinase 25 (Homo sapiens) (UniProt O00506); test: Inhibition of YSK1 in human NCI-H929 cells at 10 uM by mass spectroscopic analysis relative to control
# [10] = biological target: Rho-associated protein kinase 2 (Homo sapiens) (UniProt O75116); test: Inhibition of ROCK2 in human NCI-H929 cells at 10 uM by mass spectroscopic analysis relative to control
# [11] = biological target: Bone morphogenetic protein receptor type-1B (Homo sapiens) (UniProt O00238); test: Inhibition of BMPR1B in human NCI-H929 cells at 10 uM by mass spectroscopic analysis relative to control
# [12] = biological target: Microtubule-associated serine/threonine-protein kinase 2 (Homo sapiens) (UniProt Q6P0Q8); test: Inhibition of MAST2 in human NCI-H929 cells at 10 uM by mass spectroscopic analysis relative to control
# [13] = biological target: T2, Tyrosine-protein kinase receptor TYRO3 (Homo sapiens) (UniProt Q06418); test: Inhibition of TYRO3 in human NCI-H929 cells at 10 uM by mass spectroscopic analysis relative to control
# T2 sequence (whole entry): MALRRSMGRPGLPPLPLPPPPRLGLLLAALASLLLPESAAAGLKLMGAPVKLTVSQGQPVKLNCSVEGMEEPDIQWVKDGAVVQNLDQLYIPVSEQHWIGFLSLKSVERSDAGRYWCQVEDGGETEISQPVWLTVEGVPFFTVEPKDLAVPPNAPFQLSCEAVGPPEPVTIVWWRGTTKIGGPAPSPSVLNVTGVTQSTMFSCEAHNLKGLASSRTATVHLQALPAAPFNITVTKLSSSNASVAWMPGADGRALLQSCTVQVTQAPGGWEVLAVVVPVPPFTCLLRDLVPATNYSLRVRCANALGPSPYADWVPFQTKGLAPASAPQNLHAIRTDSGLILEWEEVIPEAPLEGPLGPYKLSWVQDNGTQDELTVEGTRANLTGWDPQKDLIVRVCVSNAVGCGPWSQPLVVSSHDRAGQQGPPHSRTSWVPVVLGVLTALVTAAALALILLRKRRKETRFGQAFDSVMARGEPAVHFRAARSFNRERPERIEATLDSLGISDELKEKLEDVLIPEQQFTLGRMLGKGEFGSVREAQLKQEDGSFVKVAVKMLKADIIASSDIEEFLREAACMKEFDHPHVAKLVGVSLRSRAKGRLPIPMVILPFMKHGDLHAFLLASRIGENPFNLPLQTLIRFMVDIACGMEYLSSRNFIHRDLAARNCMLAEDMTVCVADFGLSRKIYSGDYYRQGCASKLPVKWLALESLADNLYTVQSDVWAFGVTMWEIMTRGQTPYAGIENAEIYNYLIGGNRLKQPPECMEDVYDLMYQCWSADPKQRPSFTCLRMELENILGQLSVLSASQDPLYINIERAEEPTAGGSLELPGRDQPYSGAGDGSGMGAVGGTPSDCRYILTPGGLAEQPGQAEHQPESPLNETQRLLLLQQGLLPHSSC
# Chain of RAC-beta serine/threonine-protein kinase (Homo sapiens) (P31751 whole entry): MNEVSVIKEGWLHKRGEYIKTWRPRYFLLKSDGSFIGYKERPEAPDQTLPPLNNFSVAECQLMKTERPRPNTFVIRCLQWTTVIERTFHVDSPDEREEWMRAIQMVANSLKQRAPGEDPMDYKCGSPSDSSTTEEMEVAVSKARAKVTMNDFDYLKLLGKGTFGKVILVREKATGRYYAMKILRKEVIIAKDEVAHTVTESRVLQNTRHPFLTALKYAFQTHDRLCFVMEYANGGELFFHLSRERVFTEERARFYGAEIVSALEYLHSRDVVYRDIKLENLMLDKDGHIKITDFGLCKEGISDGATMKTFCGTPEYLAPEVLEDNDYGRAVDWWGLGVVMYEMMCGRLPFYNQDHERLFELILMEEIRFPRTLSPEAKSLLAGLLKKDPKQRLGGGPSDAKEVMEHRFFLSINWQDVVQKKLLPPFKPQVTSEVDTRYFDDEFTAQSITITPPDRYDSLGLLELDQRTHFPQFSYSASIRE
# Chain of Bone morphogenetic protein receptor type-1B (Homo sapiens) (O00238 whole entry): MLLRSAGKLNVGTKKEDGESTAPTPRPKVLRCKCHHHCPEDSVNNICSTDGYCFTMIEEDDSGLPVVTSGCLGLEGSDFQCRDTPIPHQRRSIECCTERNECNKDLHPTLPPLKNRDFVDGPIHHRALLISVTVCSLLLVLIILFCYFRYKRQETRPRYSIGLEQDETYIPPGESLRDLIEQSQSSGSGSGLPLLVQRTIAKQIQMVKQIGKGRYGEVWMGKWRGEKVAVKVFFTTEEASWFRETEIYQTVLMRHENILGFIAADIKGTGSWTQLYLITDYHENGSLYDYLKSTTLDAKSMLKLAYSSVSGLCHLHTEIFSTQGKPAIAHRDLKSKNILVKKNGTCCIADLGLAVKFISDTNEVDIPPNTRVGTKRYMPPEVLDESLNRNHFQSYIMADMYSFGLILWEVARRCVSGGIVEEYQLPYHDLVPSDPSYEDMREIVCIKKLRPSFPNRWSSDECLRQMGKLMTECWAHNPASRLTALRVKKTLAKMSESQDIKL
# Chain of Microtubule-associated serine/threonine-protein kinase 2 (Homo sapiens) (Q6P0Q8 whole entry): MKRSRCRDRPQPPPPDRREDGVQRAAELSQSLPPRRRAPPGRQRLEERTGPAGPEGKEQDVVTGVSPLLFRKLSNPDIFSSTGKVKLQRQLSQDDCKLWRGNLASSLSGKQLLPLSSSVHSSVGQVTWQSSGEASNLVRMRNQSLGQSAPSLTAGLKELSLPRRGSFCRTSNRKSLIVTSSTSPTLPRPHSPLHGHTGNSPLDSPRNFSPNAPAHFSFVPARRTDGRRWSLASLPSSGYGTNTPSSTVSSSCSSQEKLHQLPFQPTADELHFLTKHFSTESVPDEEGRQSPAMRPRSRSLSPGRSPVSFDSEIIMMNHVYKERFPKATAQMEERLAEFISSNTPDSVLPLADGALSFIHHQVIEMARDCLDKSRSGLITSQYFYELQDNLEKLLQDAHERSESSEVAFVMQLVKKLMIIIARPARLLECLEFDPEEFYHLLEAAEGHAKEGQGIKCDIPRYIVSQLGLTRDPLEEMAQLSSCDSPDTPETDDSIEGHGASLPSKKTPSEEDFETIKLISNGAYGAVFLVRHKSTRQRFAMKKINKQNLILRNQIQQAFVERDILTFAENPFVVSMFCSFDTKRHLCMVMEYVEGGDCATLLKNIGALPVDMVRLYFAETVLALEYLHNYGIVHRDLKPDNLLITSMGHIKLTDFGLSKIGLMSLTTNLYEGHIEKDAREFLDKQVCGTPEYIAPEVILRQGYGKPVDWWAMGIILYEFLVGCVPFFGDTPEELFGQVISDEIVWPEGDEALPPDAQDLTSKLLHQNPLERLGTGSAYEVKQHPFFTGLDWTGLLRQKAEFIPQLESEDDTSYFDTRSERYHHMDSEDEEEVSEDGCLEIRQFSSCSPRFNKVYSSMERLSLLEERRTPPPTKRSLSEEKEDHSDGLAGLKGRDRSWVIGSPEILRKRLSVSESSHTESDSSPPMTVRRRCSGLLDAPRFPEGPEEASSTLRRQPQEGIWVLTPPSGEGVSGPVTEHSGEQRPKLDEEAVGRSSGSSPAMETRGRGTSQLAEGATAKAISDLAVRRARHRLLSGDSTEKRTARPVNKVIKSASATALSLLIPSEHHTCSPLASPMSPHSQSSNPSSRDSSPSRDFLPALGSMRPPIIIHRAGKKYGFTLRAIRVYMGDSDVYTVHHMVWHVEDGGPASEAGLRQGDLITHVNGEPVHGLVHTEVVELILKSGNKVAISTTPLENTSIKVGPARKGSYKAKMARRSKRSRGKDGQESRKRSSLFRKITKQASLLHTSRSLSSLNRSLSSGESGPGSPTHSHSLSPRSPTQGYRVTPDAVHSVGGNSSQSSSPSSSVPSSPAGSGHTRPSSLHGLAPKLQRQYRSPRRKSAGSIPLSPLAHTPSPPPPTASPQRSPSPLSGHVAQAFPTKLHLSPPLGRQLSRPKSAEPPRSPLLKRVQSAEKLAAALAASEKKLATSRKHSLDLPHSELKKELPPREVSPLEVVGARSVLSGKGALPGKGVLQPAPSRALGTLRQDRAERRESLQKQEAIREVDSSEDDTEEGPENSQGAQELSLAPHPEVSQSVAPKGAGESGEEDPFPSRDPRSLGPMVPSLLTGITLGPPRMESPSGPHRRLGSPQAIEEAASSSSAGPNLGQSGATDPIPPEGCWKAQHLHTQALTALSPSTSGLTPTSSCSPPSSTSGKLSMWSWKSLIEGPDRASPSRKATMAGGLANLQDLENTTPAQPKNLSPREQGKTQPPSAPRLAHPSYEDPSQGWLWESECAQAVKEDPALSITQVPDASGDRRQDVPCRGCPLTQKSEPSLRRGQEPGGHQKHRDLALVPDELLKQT
# Chain of Tyrosine-protein kinase ABL2 (Homo sapiens) (P42684 whole entry): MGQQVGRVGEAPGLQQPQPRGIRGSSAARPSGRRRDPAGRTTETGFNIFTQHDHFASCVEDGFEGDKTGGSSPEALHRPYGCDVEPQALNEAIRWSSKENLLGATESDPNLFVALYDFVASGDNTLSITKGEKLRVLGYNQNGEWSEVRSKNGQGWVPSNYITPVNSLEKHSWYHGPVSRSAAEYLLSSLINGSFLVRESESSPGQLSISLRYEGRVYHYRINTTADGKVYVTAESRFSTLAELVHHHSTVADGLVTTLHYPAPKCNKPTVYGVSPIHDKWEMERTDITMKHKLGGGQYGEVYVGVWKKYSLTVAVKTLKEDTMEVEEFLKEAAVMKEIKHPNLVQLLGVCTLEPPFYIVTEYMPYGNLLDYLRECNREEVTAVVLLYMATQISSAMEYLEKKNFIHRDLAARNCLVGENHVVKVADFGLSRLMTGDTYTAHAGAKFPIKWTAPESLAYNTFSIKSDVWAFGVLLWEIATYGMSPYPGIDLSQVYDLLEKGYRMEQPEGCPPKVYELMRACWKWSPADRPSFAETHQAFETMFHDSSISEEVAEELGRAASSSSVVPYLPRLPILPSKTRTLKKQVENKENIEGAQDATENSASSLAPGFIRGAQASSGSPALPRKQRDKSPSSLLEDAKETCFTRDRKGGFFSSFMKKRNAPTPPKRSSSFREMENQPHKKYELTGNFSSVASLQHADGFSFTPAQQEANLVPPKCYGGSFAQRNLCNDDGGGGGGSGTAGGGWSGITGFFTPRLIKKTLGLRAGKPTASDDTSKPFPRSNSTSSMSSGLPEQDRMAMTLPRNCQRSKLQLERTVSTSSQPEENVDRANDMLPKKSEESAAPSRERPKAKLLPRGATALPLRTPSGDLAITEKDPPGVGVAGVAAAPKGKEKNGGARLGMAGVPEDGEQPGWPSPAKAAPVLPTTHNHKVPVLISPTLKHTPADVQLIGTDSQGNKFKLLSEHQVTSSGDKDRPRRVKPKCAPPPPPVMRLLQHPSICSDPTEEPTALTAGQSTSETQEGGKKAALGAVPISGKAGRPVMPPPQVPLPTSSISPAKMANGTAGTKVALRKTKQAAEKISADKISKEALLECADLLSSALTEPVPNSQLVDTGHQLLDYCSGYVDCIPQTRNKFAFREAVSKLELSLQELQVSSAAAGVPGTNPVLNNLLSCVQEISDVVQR
# Chain of Cyclin-dependent kinase 8 (Homo sapiens) (P49336 whole entry): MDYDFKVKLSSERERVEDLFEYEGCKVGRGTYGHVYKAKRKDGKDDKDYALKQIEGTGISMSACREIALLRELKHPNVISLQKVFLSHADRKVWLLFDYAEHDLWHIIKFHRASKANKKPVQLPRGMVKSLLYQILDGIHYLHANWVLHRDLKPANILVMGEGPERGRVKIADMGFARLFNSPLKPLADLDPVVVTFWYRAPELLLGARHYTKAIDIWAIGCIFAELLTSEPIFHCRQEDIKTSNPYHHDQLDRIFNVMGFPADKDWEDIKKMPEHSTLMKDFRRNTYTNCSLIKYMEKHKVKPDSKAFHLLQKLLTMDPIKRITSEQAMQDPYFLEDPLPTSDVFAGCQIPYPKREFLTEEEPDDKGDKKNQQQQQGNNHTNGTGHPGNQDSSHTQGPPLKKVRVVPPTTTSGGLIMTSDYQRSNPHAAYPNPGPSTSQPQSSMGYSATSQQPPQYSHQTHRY
# Chain of Serine/threonine-protein kinase 25 (Homo sapiens) (O00506 whole entry, looked up): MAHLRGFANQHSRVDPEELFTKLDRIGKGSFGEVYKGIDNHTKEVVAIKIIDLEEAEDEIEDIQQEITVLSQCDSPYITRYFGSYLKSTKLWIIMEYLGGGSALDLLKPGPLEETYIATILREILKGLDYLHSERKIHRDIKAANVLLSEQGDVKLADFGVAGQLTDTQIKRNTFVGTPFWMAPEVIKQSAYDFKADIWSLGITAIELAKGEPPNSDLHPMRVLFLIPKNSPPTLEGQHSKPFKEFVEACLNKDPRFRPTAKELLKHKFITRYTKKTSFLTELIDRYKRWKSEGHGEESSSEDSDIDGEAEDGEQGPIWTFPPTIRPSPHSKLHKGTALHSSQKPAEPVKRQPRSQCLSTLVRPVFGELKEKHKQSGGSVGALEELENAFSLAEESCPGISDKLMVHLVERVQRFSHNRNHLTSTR
inhibition [1] [%],inhibition [2] [%],inhibition [3] [%],inhibition [4] [%],inhibition [5] [%],inhibition [6] [%],inhibition [7] [%],inhibition [8] [%],inhibition [9] [%],inhibition [10] [%],inhibition [11] [%],inhibition [12] [%],inhibition [13] [%],Compound
0,0,,0,0,0,,0,0,,75,0,0,COc1cc(NS(=O)(=O)C2CC2)ccc1-c1cnc(N)c(-c2ccc3c(c2)CCNC3=O)c1
0,0,,0,0,0,0,0,< 75,,0,0,0,Nc1ncc(-c2ccc(NS(=O)(=O)C3CC3)cc2F)cc1-c1ccc2c(c1)CCNC2=O

# Second part, the compound before the results:
Compound,inhibition [1] [%],inhibition [2] [%],inhibition [3] [%],inhibition [4] [%],inhibition [5] [%],inhibition [6] [%],inhibition [7] [%],inhibition [8] [%],inhibition [9] [%],inhibition [10] [%],inhibition [11] [%],inhibition [12] [%],inhibition [13] [%]
CN(C1CC1)S(=O)(=O)c1ccc(-c2cnc(N)c(-c3ccc4c(c3)CCNC4=O)c2)c(F)c1,0,0,0,0,0,0,< 90,0,< 90,0,,,
Nc1ncc(-c2cccc3ncsc23)cc1-c1ccc2c(c1)CCNC2=O,50,50,0,0,0,50,< 75,0,0,0,,,
Nc1ncc(-c2ccc(NS(=O)(=O)C3CC3)cc2OC2CCCCC2)cc1-c1ccc2c(c1)CCNC2=O,0,0,,,,0,0,,,,> 90,0,0
Nc1ncc(-c2cccc([N+](=O)[O-])c2F)cc1-c1ccc2c(c1)CCNC2=O,,,0,,,,,0,0,0,,,
